Measured values from patent publication US5310938A, “Substituted arylpyrrole compounds” (American Cyanamid Company, priority 1993, dated 1994).
Several values for one entry are separate records, joined by “and”; a condition that tells them apart may be missing. Equal entries are not always repeated.

How the values were obtained:
[1] = system: Trichostrongylus colubriformis; test: Control of helminths (T. colubriformis) in infected gerbils; assay type: in vivo, Trichostrongylus colubriformis (sheep origin) in gerbils; conditions: 500 PPM in diet, 4 days
Text: Each test generally consists of 75 infected gerbils, randomly distributed 2 or 3 per cage (the number of animals per cage is consistent within a specific experiment). Generally, there are 8-9 untreated control gerbils (3-4 cages) per test. The remaining cages are assigned a treatment, usually 1 cage per compound or dose.
Compounds administered in diet are fed for 4 days. Animals treated by gavage or injection are generally treated on only 1 day (usually day 7).
In accordance with this test, gerbils are each orally infected by gavage, with about 400 Trichostrongylus colubriformis infective larvae of sheep origin. The infected animals are then permitted to feed and drink ad libitum for six days. On day 7 the infected gerbils are randomly placed in rodent cages 2 or 3 animals per cage. The animals in each cage are weighed and the feed for each cage weighed. If the treatment to be evaluated is medicated feed, said medicated feed is offered on day 7 and continued through day 11 of the trial. If the treatment to be evaluated is a single oral dose or a parenteral treatment, the animals are given the medication by gavage or injection on day 7 and receive unmedicated feed and water through day 11 of the trial. On day 11 the animals and their feed are weighed. Thereafter the animals are euthanized by CO2 inhalation and their small intestines removed, inverted on application sticks and incubated in tap water at 39° C. for 1-5 hours. The sticks and intestines are then discarded and the worms from each treatment counted to determine the % mortality of the worms as compared to untreated controls.

[2] = system: Psoroptes cuniculi; test: Filter paper contact test against Psoroptes cuniculi (Rabbit Ear Mite); assay type: in vivo; conditions: Psoroptes ovis, 24 hour; for mortality at 4 µg/cm2, 4 µg/cm2: 4.0 μg/cm^2, read-out: 24 hour % Mortality; for mortality at 10 µg/cm2, 10 µg/cm2: 10.0 μg/cm^2
Experimental: On the day prior to the test initiation the drugs to be evaluated are dissolved in acetone and diluted to the desired concentrations. The concentration is calculated so that 400 μl contains the amount of test compound to be placed on each filter paper. 400 μl of this solution is pipetted onto a top (3.7 cm dia.) and bottom (3.5 cm dia.) filter paper disks which are then placed on a ceramic plate to dry. There is a rough and smooth side to the filter paper. Drug should be applied to the rough side which is placed up while drying. When dry the two disks are placed in a Petri dish with the rough sides facing in, separated by one 3 mm glass bead. Dishes are held at room temperature overnight if done the day before the test.
Scab (containing mites) is collected from the ears of infested rabbits the morning of the test. This material is placed in a large Petri dish under an illuminated magnifier. Mites crawl out of the scab and are easily collected on the point of a dissecting needle or one prong of a pair of fine forceps. The top filter paper in each dish is removed and 12 mites are placed on the bottom disk and the top paper replaced. Before replacing the top of the Petri dish the rim of the dish is smeared with Vaseline to trap any escaping mites.
For evaluation tests there are generally 4 replicates of each dose which are counted at 24 hours. After mites are added to the dishes, the dishes in each replicate are placed in a tray which is then placed in a plastic bag with several wet towels and held at room temperature.
After 24 hours dishes are examined under a dissecting scope. Each dish is opened carefully and the top filter paper removed and saved. A 1/2 cm circle is drawn on the bottom filter paper and the paper gently wet in the area of the circle. All mites from the dish are transferred into the wet circle area and counted. The top cover is replaced on each dish and the dishes set aside for at least 15 minutes. After standing the dishes are examined and the mites remaining on the circle counted. These mites are dead. Percent mortality of the mites is then calculated for each treatment.

[3] = system: Housefly Larvae; test: Inhibition of pupation of newly emerged housefly larvae; assay type: in vivo; conditions: Musca domestica, 168 h, one week, 27° C., corrected by Abbott's formula
Experimental: In this test system newly emerged housefly larvae are grown on an undefined medium of fermented whole milk and dried beef blood. Compounds are added to the milk and activity is determined by the failure of larvae to pupate.
The test is run in 1 oz. plastic medicine cups. Paper toweling is cut in pieces approximately 3.5×10 cm. Three of these pieces are folded accordion style and placed in each paper cup. A piece of masking tape is placed on the outside of the cup to facilitate numbering. Cups should be prepared prior to the day the test is to begin.
Newly hatched housefly larvae are obtained on the morning the test is to begin. The eggs are laid the night before and larvae usually begin to hatch by 9-10 AM the following morning.
Twenty-four hours before the initiation of the test, one half gallon of whole milk is divided into 5 1-liter beakers and placed in an incubator at 39° C.
The morning of the test, one 250 ml beaker is labeled for each treatment. The fermented milk is removed from the incubator, stirred and poured into each of the small beakers. The beakers are then returned to the incubator and 1-2 g of dried beef blood added to each beaker to distribute blood which will not dissolve. The beakers are again returned to the incubator.
Doses of compounds are calculated so that 0.1 ml contains the amount of compound to be added to 100 ml of milk. Compounds should be dissolved in acetone. 100 μl of acetone is added to each control beaker.
Each beaker is removed from incubator and placed on a magnetic stirrer. The compound is added and thoroughly mixed. Then 20 ml portions are removed and added to labelled test cups (4 reps/treatment). Cups are placed in stainless steel tray until all are prepared. […] The tray containing the cups are then placed in a plastic bag and maintained at room temperature.
The media that the fly eggs are laid in is spread out in a green or black pan so that larvae can be observed. Working under an illuminated magnifier 20 larvae are transferred into each cup using a fine paint brush. Each cup is then sealed in a Zip-Loc sandwich bag with a few pinholes in it.
Bags containing cups are placed on a flat tray and placed in a 27° C. incubator for one week. The majority of the larvae will have pupated at this point.
Trays are then removed from the incubator and the number of pupae in each bag recorded. The paper toweling is removed and examined closely for any pupae that have remained in the cups. Most of the pupae will be loose in the bag. A note is also made of any dead or live developed larvae. If there are larvae that appear capable of pupating, the bag may be returned to the incubator for a day to see if they will pupate.
The percent development of pupae is then calculated. The final results are expressed as a percent inhibition of pupation and are corrected for control mortality by using Abbott's formula.

[4] = system: Caenorhabditis elegans; test: Nematicidal activity against C. elegans (motility rating); assay type: in vivo, C. elegans (Bristol strain); parameters: key: 9: complete kill; 8: no motility; 7: markedly reduced motility in approximately 95% of worms; 6: reduced motility; 5: slightly reduced motility; 0: normal motility, same as controls; conditions: read at 4 and 24 hours post-immersion
Experimental: Cultures of C. elegans (Bristol strain from J. Lewis) are maintained on E. coli lawns on NG Agar Plates at 20° C. New cultures are established weekly.
Nematodes for testing are washed from 4-5 day old cultures using Fresh Ascaris Ringers Solution (FARS). The worms are further washed with FARS,-containing gentamycin, to reduce bacterial contamination and centrifuged to separate worms from wash solution. This procedure is repeated three times. The washed worms are then added to C. brigassae Maintenance Medium (CbMM), from GIBCOa to which is added gentamycin (600 units/ml) and mycostatin (0.5 mg/ml).
Compounds are dissolved in acetone and made up to volume with equal parts of water. The final test concentration of each compound in the mixture is 150 ppm. The test material is micropipetted (25 ul) into a single well of a 96-well sterile tissue culture plate (COSTAR)^b and the solvent allowed to evaporate. These "treated" plates are used immediately or stored in a refrigerator without apparent adverse effects on the compounds.
A freshly prepared volume ([…]) of C. elegans in CbMM is micropipetted into each treated well and several control wells per plate. Culture plates are incubated at 20° C.
Observations for efficacy are made under a dissecting microscope at 4 and 24 hours post-immersion. Immediately prior to reading the plate, it is gently tapped to stimulate the movement of the worms. Activity is judged based on the drug effects on motility of the adults and larvae. […] Other factors indicating activity are easily noted such as death, rigor mortis, contraction, coiling, paralysis, abnormal twitching, reduced worm population in 48 hours and other deviation from normal behavior.
Day 0 Inoculate E. Coli-NG Agar Dish With 30-40
Day 4 Harvest New C. Elegans Population
Add C. Elegans (25-100 µL) To "Medicated"
Observe for Activity at 4 hours Post-
Day 5 Observe For Activity

[5] = system: Dermacentor variabilis; test: Filter paper contact test against larval stages of the Dogtick; assay type: in vivo; conditions: for mortality at 10 µg/cm2, 10 µg/cm2: 10.0 μg/cm^2, 48 hour
Experimental: The test procedure used herein is the same procedure described in Example 2, for evaluating the arylpyrroles for control of Psoroptes cuniculi the Rabbit Ear Mite, with the following exceptions:
(1) Unfed larval ticks are obtained from egg masses laid by gravid female ticks removed from dogs and each replicate receives ticks from the same egg mass;
(2) Ticks survive longer than mites in the Petri dishes, thus readings are made 48 hours or longer after the test is initiated; and
(3) When reading the test it may be necessary to blow on the ticks to stimulate their movement.

In the case of “4-Bromo-1-(ethoxymethyl)-5-(trifluoromethyl)pyrrole-3-carbonitrile”, the “% Helminth removal” value [1] is reported as 13%.

With `N#CCn1c(Cl)c(Cl)c(C#N)c1-c1ccc(C(F)(F)F)cc1` [2,3-Dichloro-4-cyano-5-(α,α,α-trifluoro-P-tolyl)-pyrrole-1-acetonitrile] the mortality at 4 µg/cm2, 4 µg/cm2 [2] was 77%, the inhibition at 10 ppm [3] was 100% and the “Rating Against C. Elegans 150 ppm” value [4] was 9.

With `O=[N+]([O-])c1c(-c2ccc(Cl)cc2)[nH]c(Cl)c1Cl` [2,3-Dichloro-5-(P-chlorophenyl)-4-nitropyrrole] the mortality at 4 µg/cm2, 4 µg/cm2 [2] was 52%, the mortality at 10 µg/cm2, 10 µg/cm2 [2] was 91% and the mortality at 10 µg/cm2, 10 µg/cm2 [5] was 58%. The “Rating Against C. Elegans 150 ppm” value [4] was 9.

`N#Cc1c(Br)[nH]c(-c2ccc(Cl)cc2)c1Br` [2,4-dibromo-5-(p-chlorophenyl)pyrrole-3-carbonitrile] was tested, and the mortality at 4 µg/cm2, 4 µg/cm2 [2] was 11%.

For `N#Cc1cc[nH]c1-c1cc(F)c(Cl)cc1Cl` [2-(2,4-Dichloro-5-fluorophenyl)pyrrole-3-carbonitrile], the mortality at 4 µg/cm2, 4 µg/cm2 [2] was 73%.

In the case of `CCOCn1c(C(F)(F)F)cc([N+](=O)[O-])c1-c1ccc(Cl)c(Cl)c1` [2-(3,4-Dichlorophenyl)-1-(ethoxymethyl)-3-nitro-5-(trifluoromethyl)pyrrole], the mortality at 4 µg/cm2, 4 µg/cm2 [2] is reported as 92%.

With `O=[N+]([O-])c1c(-c2ccccc2)[nH]c(C(F)(F)F)c1C(F)(F)F` [3-nitro-2-phenyl-4,5-bis(trifluoromethyl)pyrrole] the “% Helminth removal” value [1] was 42% and the “Rating Against C. Elegans 150 ppm” value [4] was 9.

`CCOCn1c(Cl)c(Cl)c(C#N)c1-c1ccc(OC(F)(F)F)cc1` [4,5-Dichloro-1-(ethoxymethyl)-2-[P-(trifluoromethoxy)phenyl]pyrrole-3-carbonitrile] showed a mortality at 4 µg/cm2, 4 µg/cm2 [2] of 100%.

In the case of `Cn1c(Cl)c(Cl)c(C#N)c1-c1ccc(OC(F)(F)F)cc1` [4,5-Dichloro-1-methyl-2-[P-(trifluoromethoxy)phenyl]-pyrrole-3-carbonitrile], the mortality at 10 µg/cm2, 10 µg/cm2 [5] is reported as 55%.

With `N#Cc1c(-c2ccc(Cl)c(Cl)c2)[nH]c(Cl)c1Cl` [4,5-dichloro-2-(3,4-dichlorophenyl)pyrrole-3-carbonitrile] the mortality at 10 µg/cm2, 10 µg/cm2 [2] was 33% and the mortality at 10 µg/cm2, 10 µg/cm2 [5] was 40%.

`CCOCn1c(-c2ccc(Br)cc2)c(C#N)c(Br)c1C(F)(F)F` [4-Bromo-2-(P-bromophenyl)-1-(ethoxymethyl)-5-(trifluoromethyl)pyrrole-3-carbonitrile] was tested, and the mortality at 4 µg/cm2, 4 µg/cm2 [2] was 31%.

With `CCOCn1c(-c2ccc(Cl)cc2)c(C#N)c(Br)c1C(F)(F)F` [4-Bromo-2-(P-chlorophenyl)-1-(ethoxymethyl)-5-(trifluoromethyl)-2-(α,α,α-trifluoro-P-tolyl)pyrrole-3-carbonitrile] the “% Helminth removal” value [1] was 29%.

For `CCOCn1c(-c2ccc(Cl)c(Cl)c2)c(C#N)c(Br)c1C(F)(F)F` [4-bromo-2-(3,4-dichlorophenyl)-1-(ethoxymethyl)-5-(trifluoromethyl)-pyrrole-3-carbonitrile], the “% Helminth removal” value [1] was 15% and 28% and the “Rating Against C. Elegans 150 ppm” value [4] was 9.

With `CCOCn1c(-c2ccc(Cl)cc2)c(C#N)c(Br)c1C(F)(F)F` [4-bromo-2-(P-chlorophenyl)-1-(ethoxymethyl)-5-(trifluoromethyl)pyrrole-3-carbonitrile] the mortality at 4 µg/cm2, 4 µg/cm2 [2] was 76%, the mortality at 1 µg/cm2, 1 µg/cm2 ([5]; 1.0 μg/cm^2, 48 hour) was 77% and the mortality at 4 µg/cm2, 4 µg/cm2 ([5]; 4.0 μg/cm^2, 48 hour) was 83%. The mortality at 5 µg/cm2, 5 µg/cm2 ([5]; 5.0 μg/cm^2, 48 hour) was 100%, the mortality at 10 µg/cm2, 10 µg/cm2 [5] was 100% and the inhibition at 1 ppm ([3]; 1.0 ppm) was 15%. The inhibition at 2.5 ppm ([3]; 2.5 ppm) was 0%, the inhibition at 5 ppm ([3]; 5.0 ppm) was 38% and the inhibition at 10 ppm [3] was 99%. For the same molecule, the “Rating Against C. Elegans 150 ppm” value [4] was 9.

In the case of `N#Cc1[nH]c(Br)c(C#N)c1-c1ccc(Cl)cc1` [5-Bromo-3-(P-chlorophenyl)-pyrrole-2,4-dicarbonitrile], the “Rating Against C. Elegans 150 ppm” value [4] is reported as 9.
